Test results: PubChem BioAssay (NCI)
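In this assay, cells in 96-well plates receive the compound at five concentrations for 48 hours. Endpoints are linearly interpolated between the surrounding concentrations. At the GI50, growth is halved. The concentration for full growth arrest is given as TGI.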

What was measured:
Experiment in all cases: inhibition of tumour cell growth, NCI panel, 48 h
[1] = test system: EKVX NSCLC
[2] = test system: TK-10 renal
[3] = test system: OVCAR-3 ovarian
[4] = test system: MCF7 breast
[5] = test system: HL-60(TB) leukemia
[6] = test system: U251 CNS
[7] = test system: HCT-15 colon
[8] = test system: HOP-92 NSCLC
[9] = test system: OVCAR-4 ovarian
[10] = test system: UACC-257 melanoma
[11] = test system: SN12C renal
[12] = test system: SF-268 CNS
[13] = test system: LOX IMVI melanoma
[14] = test system: UO-31 renal
[15] = test system: SF-539 CNS
[16] = test system: SNB-75 CNS
[17] = test system: HT29 colon
[18] = test system: MDA-MB-231 breast
[19] = test system: HCT-116 colon
[20] = test system: DU-145 prostate
[21] = test system: COLO 205 colon
[22] = test system: SK-OV-3 ovarian
[23] = test system: MDA-MB-435
[24] = test system: BT-549 breast
[25] = test system: NCI-H226 lung
[26] = test system: OVCAR-5 ovarian
[27] = test system: NCI-H522 lung
[28] = test system: HOP-62 NSCLC
[29] = test system: 786-0 renal
[30] = test system: IGROV1 ovarian
[31] = test system: SNB-19 CNS
[32] = test system: CCRF-CEM leukemia
[33] = test system: HCC-2998 colon
[34] = test system: SR leukemia
[35] = test system: M14 melanoma
[36] = test system: CAKI-1 renal
[37] = test system: NCI-H23 lung
[38] = test system: KM12 colon
[39] = test system: HS 578T breast
[40] = test system: MOLT-4 leukemia
[41] = test system: OVCAR-8 ovarian
[42] = test system: NCI/ADR-RES ovarian
[43] = test system: SK-MEL-2 melanoma
[44] = test system: ACHN renal
[45] = test system: K-562 leukemia
[46] = test system: SK-MEL-28 melanoma
[47] = test system: A498 renal
[48] = test system: SF-295 CNS
[49] = test system: SW-620 colon
[50] = test system: UACC-62 melanoma
[51] = test system: A549 NSCLC
[52] = test system: NCI-H460 lung
[53] = test system: PC-3 prostate
[54] = test system: RPMI-8226 leukemia
[55] = test system: T-47D breast
[56] = test system: SK-MEL-5 melanoma
[57] = test system: RXF 393 renal
[58] = test system: MALME-3M melanoma

`Cc1ccc(NC2=C(Sc3ccc(Cl)cc3)C(=O)N(Cc3ccccc3)C2=O)cc1Cl` showed a GI50 [1] of 26.7 µM, a TGI [1] of over 100 µM and a GI50 [2] of 11.7 µM. For the same compound, the TGI [2] was 68.3 µM, the GI50 [3] was 2.09 µM and the TGI [3] was 5.31 µM. The GI50 [4] was 4.37 µM, the TGI [4] was over 100 µM and the GI50 [5] was 11.9 µM. The TGI [5] was 27.6 µM, the GI50 [6] was 3.24 µM and the TGI [6] was 14 µM. For the same compound, the GI50 [7] was 10.6 µM, the TGI [7] was over 100 µM and the GI50 [8] was 4.59 µM. It also gave a TGI [8] of 17 µM, a GI50 [9] of 4.82 µM and a TGI [9] of 18 µM. It also gave a GI50 [10] of 7.37 µM, a TGI [10] of 30.3 µM and a GI50 [11] of 12.3 µM. It also gave a TGI [11] of 29 µM, a GI50 [12] of 6.26 µM and a TGI [12] of 93.7 µM. The GI50 [13] was 4.84 µM, the TGI [13] was 17.1 µM and the GI50 [14] was 8.73 µM. The TGI [14] was 22.1 µM, the GI50 [15] was 3.45 µM and the TGI [15] was 16.9 µM. It also gave a GI50 [16] of 3.92 µM, a TGI [16] of 19.4 µM and a GI50 [17] of 10.4 µM. The TGI [17] was over 100 µM, the GI50 [18] was 3.84 µM and the TGI [18] was 14.7 µM. The GI50 [19] was 3.6 µM, the TGI [19] was 15 µM and the GI50 [20] was 3.98 µM. For the same compound, the TGI [20] was 24.6 µM, the GI50 [21] was 31.9 µM and the TGI [21] was over 100 µM. The GI50 [22] was 18.2 µM, the TGI [22] was 45.7 µM and the GI50 [23] was 22 µM. For the same compound, the TGI [23] was over 100 µM, the GI50 [24] was 10.4 µM and the TGI [24] was 24 µM. It also gave a GI50 [25] of 4.23 µM, a TGI [25] of 19.9 µM and a GI50 [26] of 10.5 µM. It also gave a TGI [26] of 25.1 µM, a GI50 [27] of 3.62 µM and a TGI [27] of 14.9 µM. The GI50 [28] was 3.14 µM, the TGI [28] was 10.4 µM and the GI50 [29] was 10.3 µM. The TGI [29] was 22.4 µM, the GI50 [30] was 3.98 µM and the TGI [30] was 15.3 µM. The GI50 [31] was 6.03 µM, the TGI [31] was 28.9 µM and the GI50 [32] was 11.1 µM. It also gave a TGI [32] of 23.1 µM, a GI50 [33] of 19.6 µM and a TGI [33] of over 100 µM. For the same compound, the GI50 [34] was 2.86 µM, the TGI [34] was 8.12 µM and the GI50 [35] was 3.88 µM. The TGI [35] was 17.5 µM, the GI50 [36] was 3.44 µM and the TGI [36] was 15.9 µM. The GI50 [37] was 13.3 µM, the TGI [37] was 32.8 µM and the GI50 [38] was 31.1 µM. The TGI [38] was over 100 µM, the GI50 [39] was 3.37 µM and the TGI [39] was 18.7 µM. For the same compound, the GI50 [40] was 10.5 µM, the TGI [40] was 26 µM and the GI50 [41] was 3.98 µM. The TGI [41] was 34.8 µM, the GI50 [42] was 10.4 µM and the TGI [42] was 29.7 µM. The GI50 [43] was 13.2 µM, the TGI [43] was 33.3 µM and the GI50 [44] was 4.91 µM. It also gave a TGI [44] of 17.1 µM, a GI50 [45] of 3.66 µM and a TGI [45] of 19.7 µM. The GI50 [46] was 28.7 µM, the TGI [46] was over 100 µM and the GI50 [47] was 4.8 µM. It also gave a TGI [47] of 17.1 µM, a GI50 [48] of 5.86 µM and a TGI [48] of over 100 µM. The GI50 [49] was 6.01 µM, the TGI [49] was 36.2 µM and the GI50 [50] was 13.5 µM. It also gave a TGI [50] of 30.5 µM, a GI50 [51] of 3.38 µM and a TGI [51] of 15.9 µM. For the same compound, the GI50 [52] was 5.75 µM, the TGI [52] was 39.8 µM and the GI50 [53] was 5.47 µM. It also gave a TGI [53] of 19.7 µM, a GI50 [54] of 12.7 µM and a TGI [54] of 40.8 µM. The GI50 [55] was 5.32 µM, the TGI [55] was 66.4 µM and the GI50 [56] was 5.84 µM. For the same compound, the TGI [56] was 20.3 µM.

In the case of `CCc1nc2ccc(Cc3ccc(C(=O)NO)cc3)cc2c(=O)n1CCc1ccccc1`, the GI50 [1] is reported as 1.21 µM, the TGI [1] is reported as 3.14 µM and the GI50 [2] is reported as 1.28 µM. For the same compound, the TGI [2] was 2.89 µM, the GI50 [57] was 0.741 µM and the TGI [57] was 2.3 µM. For the same compound, the GI50 [3] was 1.15 µM, the TGI [3] was 3.85 µM and the GI50 [4] was 1.34 µM. It also gave a TGI [4] of 6.82 µM, a GI50 [5] of 2.25 µM and a TGI [5] of 83.1 µM. For the same compound, the GI50 [6] was 0.963 µM, the TGI [6] was 2.28 µM and the GI50 [7] was 0.528 µM. It also gave a TGI [7] of 3.07 µM, a GI50 [8] of 1.36 µM and a TGI [8] of 2.98 µM. For the same compound, the GI50 [9] was 1.25 µM, the TGI [9] was 6.09 µM and the GI50 [10] was 0.64 µM. For the same compound, the TGI [10] was 2.47 µM, the GI50 [12] was 1.31 µM and the TGI [12] was 3.91 µM. The GI50 [13] was 1.16 µM, the TGI [13] was 2.5 µM and the GI50 [15] was 1.46 µM. It also gave a TGI [15] of 3.65 µM, a GI50 [16] of 1.41 µM and a TGI [16] of 3.71 µM. The GI50 [17] was 0.919 µM, the TGI [17] was 4.5 µM and the GI50 [18] was 1.31 µM. It also gave a TGI [18] of 3.98 µM, a GI50 [19] of 0.388 µM and a TGI [19] of 1.57 µM. For the same compound, the GI50 [20] was 1.09 µM, the TGI [20] was 7.81 µM and the GI50 [21] was 0.871 µM. For the same compound, the TGI [21] was 2.55 µM, the GI50 [22] was 1.44 µM and the TGI [22] was 2.88 µM. For the same compound, the GI50 [24] was 1.73 µM, the TGI [24] was 4.79 µM and the GI50 [25] was 1.24 µM. It also gave a TGI [25] of 3.05 µM, a GI50 [26] of 1.36 µM and a TGI [26] of 12.8 µM. The GI50 [27] was 0.302 µM, the TGI [27] was 1.68 µM and the GI50 [28] was 1.32 µM. It also gave a TGI [28] of 2.86 µM, a GI50 [29] of 1.71 µM and a TGI [29] of 3.41 µM. It also gave a GI50 [31] of 2.07 µM, a TGI [31] of 7.57 µM and a GI50 [32] of 0.568 µM. For the same compound, the TGI [32] was over 100 µM, the GI50 [33] was 1.44 µM and the TGI [33] was 3.1 µM. For the same compound, the GI50 [34] was 0.784 µM, the TGI [34] was 61 µM and the GI50 [35] was 1.27 µM. For the same compound, the TGI [35] was 3.24 µM, the GI50 [37] was 1.11 µM and the TGI [37] was 3.89 µM. It also gave a GI50 [39] of 1.59 µM, a TGI [39] of 7.4 µM and a GI50 [40] of 0.637 µM. The TGI [40] was 16.7 µM, the GI50 [41] was 0.584 µM and the TGI [41] was 4.16 µM. It also gave a GI50 [42] of 0.37 µM, a TGI [42] of 4.59 µM and a GI50 [43] of 1.62 µM. It also gave a TGI [43] of 3.95 µM, a GI50 [45] of 1.02 µM and a TGI [45] of over 100 µM. For the same compound, the GI50 [46] was 1.47 µM, the TGI [46] was 5.72 µM and the GI50 [47] was 0.364 µM. The TGI [47] was 1.93 µM, the GI50 [48] was 1.02 µM and the TGI [48] was 2.6 µM. It also gave a GI50 [58] of 0.586 µM, a TGI [58] of 2.1 µM and a GI50 [49] of 0.412 µM. The TGI [49] was 2.23 µM, the GI50 [50] was 0.52 µM and the TGI [50] was 2.64 µM. The GI50 [51] was 1.15 µM, the TGI [51] was 2.99 µM and the GI50 [52] was 0.52 µM. For the same compound, the TGI [52] was 2.07 µM, the GI50 [54] was 1.07 µM and the TGI [54] was 10.3 µM. For the same compound, the GI50 [55] was 0.809 µM, the TGI [55] was 5.41 µM and the GI50 [56] was 0.822 µM. The TGI [56] was 2.1 µM.
